Counter-ions that a name gives are not always drawn.
How the values were obtained:
Assay type in all cases: functional, cell-based
[1] = tested on: HepG2; assay: Antiproliferative activity against human HepG2 cells incubated for 48 hrs by CCK-8 assay; conditions: HepG2, 48 h
[2] = tested on: HCT-8; assay: Cytotoxicity against human HCT-8 cells
[3] = tested on: HCT-8; assay: Antiproliferative activity against human HCT-8 cells incubated for 48 hrs by CCK-8 assay; conditions: HCT-8, 48 h
[4] = tested on: KB; assay: Antiproliferative activity against human KB cells incubated for 48 hrs by CCK-8 assay
[5] = tested on: SGC-7901; assay: Antiproliferative activity against human SGC-7901 cells incubated for 48 hrs by CCK-8 assay; conditions: SGC-7901, 48 h
[6] = tested on: A549; assay: Antiproliferative activity against human A549 cells measured after 72 hrs by colorimetric assay; conditions: A549, 72 h
[7] = tested on: KB; assay: Antiproliferative activity against human KB cells measured after 72 hrs by colorimetric assay
[8] = Antiproliferative activity against human KB-VIN cells measured after 72 hrs by colorimetric assay; conditions: KBVIN
[9] = tested on: A549; assay: Cytotoxicity against human A549 cells incubated for 48 hrs by SpectraMax M5 microplate reader analysis; conditions: A549, 48 h
[10] = tested on: SBC-3; assay: Cytotoxicity against human SBC-3 cells incubated for 48 hrs by MTT assay; conditions: SBC-3, 48 h
[11] = Cytotoxicity against human NCI-H196 cells incubated for 48 hrs by MTT assay; conditions: NCI-H196, 48 h
[12] = tested on: SBC-5; assay: Cytotoxicity against human SBC-5 cells incubated for 48 hrs by MTT assay; conditions: SBC-5, 48 h
[13] = tested on: A549; assay: Cytotoxicity against human A549 cells incubated for 48 hrs by MTT assay; conditions: A549, 48 h
[14] = tested on: NCI-H1299; assay: Cytotoxicity against human NCI-H1299 cells incubated for 48 hrs by MTT assay; conditions: NCI-H1299, 48 h
[15] = tested on: NCI-H520; assay: Cytotoxicity against human NCI-H520 cells incubated for 48 hrs by MTT assay; conditions: NCI-H520, 48 h
[16] = tested on: HT-29; assay: Cytotoxicity against human HT-29 cells
[17] = tested on: A549; assay: Cytotoxicity against human A549 cells
[18] = tested on: MSTO-211H; assay: Antiproliferative activity against human MSTO-211H cells incubated for 72 hrs
[19] = tested on: A-431; assay: Antiproliferative activity against human A-431 cells incubated for 72 hrs; conditions: A-431, 72 h
[20] = tested on: NCI-H460; assay: Antiproliferative activity against human NCI-H460 cells incubated for 72 hrs; conditions: NCI-H460, 72 h
[21] = tested on: HeLa; assay: Antiproliferative activity against human HeLa cells incubated for 72 hrs
[22] = tested on: Jurkat; assay: Anticancer activity against human Jurkat cells incubated for 48 hrs by MTT assay
[23] = tested on: NSCLC; assay: Cytotoxicity against human NSCLC cells
[24] = tested on: KB; assay: Antiproliferative activity against human KB cells
[25] = tested on: MCF7; assay: Antiproliferative activity against human MCF7 cells
[26] = tested on: MDA-MB-231; assay: Antiproliferative activity against human MDA-MB-231 cells
[27] = Antiproliferative activity against human KB-VIN cells; conditions: KBVIN
[28] = tested on: A549; assay: Antiproliferative activity against human A549 cells
[29] = Antiproliferative activity against human KB-VIN cells assessed as reduction in cell viability; conditions: KBVIN
[30] = tested on: K562; assay: Anticancer activity against human K562 cells incubated for 72 hrs by MTT assay; conditions: K562, 72 h
[31] = Anticancer activity against human SPCA1 cells incubated for 72 hrs by MTT assay; conditions: SPCA1, 72 h
[32] = tested on: U-251; assay: Anticancer activity against human U-251 cells incubated for 72 hrs by MTT assay; conditions: U-251, 72 h
[33] = tested on: SW 1116; assay: Anticancer activity against human SW 1116 cells incubated for 72 hrs by MTT assay; conditions: SW 1116, 72 h
[34] = tested on: SK-OV-3; assay: Anticancer activity against human SK-OV-3 cells incubated for 72 hrs by MTT assay; conditions: SK-OV-3, 72 h
[35] = tested on: HepG2; assay: Anticancer activity against human HepG2 cells incubated for 48 hrs by MTT assay; conditions: HepG2, 48 h
[36] = tested on: HT-29; assay: Anticancer activity against human HT-29 cells incubated for 48 hrs by MTT assay; conditions: HT-29, 48 h
[37] = tested on: H322; assay: Anticancer activity against human H322 cells incubated for 48 hrs by MTT assay; conditions: NCI-H322, 48 h
[38] = tested on: HL-60; assay: Anticancer activity against human HL-60 cells incubated for 48 hrs by MTT assay; conditions: HL-60, 48 h
[39] = tested on: A549; assay: Anticancer activity against human A549 cells incubated for 48 hrs by MTT assay; conditions: A549, 48 h
[40] = tested on: DU-145; assay: Anticancer activity against human DU-145 cells incubated for 48 hrs by MTT assay; conditions: DU-145, 48 h
[41] = tested on: HCT-116; assay: Anticancer activity against human HCT-116 cells incubated for 48 hrs by MTT assay; conditions: HCT-116, 48 h

`CC[C@@]1(O)C(=O)OCc2c1cc1n(c2=O)Cc2cc3c(/C=C(\C)C(=O)OC)c(O)ccc3nc2-1` showed an IC50 [1] of 0.176 µM, an IC50 [2] of 0.03 µM and an IC50 [3] of 0.03 µM. The IC50 [4] was 0.73 µM and the IC50 [5] was 0.262 µM.

With `CCc1c2c(nc3ccccc13)-c1cc3c(c(=O)n1C2)COC(=O)[C@]3(CC)OC(=O)CN/C(Cc1ccc(OC)cc1)=N\S(=O)(=O)c1ccc(C)cc1` the IC50 [6] was 0.0314 µM, the IC50 [7] was 0.142 µM and the IC50 [8] was 0.026 µM.

Molecule `CC[C@@]1(OC(=O)CCC(=O)O[C@@H]2O[C@@H](C)[C@H](OC(C)=O)[C@@H](OC(C)=O)[C@H]2OC(C)=O)C(=O)OCc2c1cc1n(c2=O)Cc2cc3cc4c(cc3nc2-1)OCO4` has an IC50 [9] of 0.083 µM.

In the case of `CCc1c2c(nc3ccc(OCc4cn(C(COC(CO)CO)COC(CO)CO)nn4)cc13)-c1cc3c(c(=O)n1C2)COC(=O)[C@@]3(O)CC`, the IC50 [10] is reported as 1.7 µM, the IC50 [11] is reported as 510 µM and the IC50 [12] is reported as 4.8 µM. It also gave an IC50 [13] of 23 µM, an IC50 [14] of 1000 µM and an IC50 [15] of 1.5 µM.

`CC[C@@](O)(C(=O)NCCN1CCOCC1)c1cc2n(c(=O)c1CO)Cc1c-2nc2ccccc2c1-c1ccccc1` gave an IC50 [16] of 0.1 µM and an IC50 [17] of 0.1 µM.

Molecule `CC[C@@]1(O)C(=O)OCc2c1cc1n(c2=O)Cc2c-1nc1ccccc1c2CSSCc1c2c(nc3ccccc13)-c1cc3c(c(=O)n1C2)COC(=O)[C@]3(O)CC` has an IC50 ([18]; Homo sapiens, MSTO-211H, 72 h) of 0.0022 µM, an IC50 ([18]; msto-211h) of 0.002 µM and an IC50 [19] of 0.021 µM. It also gave an IC50 [20] of 0.006 µM and an IC50 [21] of 0.009 µM.

Work on `CC[C@@]1(O)C(=O)OCc2c1cc1n(c2=O)Cc2cc3ccccc3nc2-1` [CAMPTOTHECIN] yielded an IC50 [22] of 0.1 µM.

`CC[C@@](O)(C(=O)NCCCN1CCOCC1)c1cc2n(c(=O)c1CO)Cc1c-2nc2ccccc2c1-c1ccccc1` gave an IC50 [16] of 0.01 µM and an IC50 [17] of 0.01 µM.

Work on `CC[C@@]1(O)C(=O)OCc2c1cc1n(c2=O)Cc2cc3cc4c(cc3nc2-1)OCO4` yielded an IC50 [9] of 0.083 µM and an EC50 [23] of 0.001 µM.

In the case of `CCc1c2c(nc3ccc(OC(=O)N4CCC(N5CCCCC5)CC4)cc13)-c1cc3c(c(=O)n1C2)COC(=O)[C@]3(O)CC` [IRINOTECAN], the IC50 [9] is reported as 9.14 µM.

For `CCc1c2c(nc3ccc(OC)cc13)-c1cc([C@@](O)(CC)C(=O)NCCCN3CCOCC3)c(CO)c(=O)n1C2`, the IC50 [16] was 0.02 µM and the IC50 [17] was 0.02 µM.

In the case of `CC[C@@]1(O)C(=O)OCc2c1cc1n(c2=O)Cc2c-1nc1ccccc1c2CN1CCN(C(=S)Nc2cccc3ccccc23)CC1`, the IC50 [24] is reported as 0.089 µM, the IC50 [25] is reported as 0.789 µM and the IC50 [26] is reported as 0.588 µM. It also gave an IC50 [27] of 0.275 µM, an IC50 [28] of 0.059 µM and an IC50 [29] of 0.275 µM.

Work on `CC[C@]1(OC(=O)CN/C(Cc2ccc(OC)cc2)=N\S(=O)(=O)c2ccc(C)cc2)C(=O)OCc2c1cc1n(c2=O)Cc2cc3ccccc3nc2-1` yielded an IC50 [6] of 0.0314 µM, an IC50 [7] of 0.142 µM and an IC50 [8] of 0.026 µM.

`CCc1c2c(nc3ccc(OC(=O)NC(CC(C)C)C(=O)O)cc13)-c1cc3c(c(=O)n1C2)COC(=O)[C@]3(O)CC` (stereo partly drawn) showed an IC50 [30] of 1.62 µM, an IC50 [31] of 0.385 µM and an IC50 [32] of 1.7 µM. It also gave an IC50 [33] of 0.091 µM and an IC50 [34] of 0.001 µM.

Molecule `CC[C@@]1(O)C(=O)OCc2c1cc1n(c2=O)Cc2c-1nc1ccccc1c2CS` has an IC50 ([18]; Homo sapiens, MSTO-211H, 72 h) of 0.00185 µM, an IC50 ([18]; msto-211h) of 0.0018 µM and an IC50 [19] of 0.11 µM. For the same molecule, the IC50 [20] was 0.027 µM and the IC50 [21] was 0.008 µM.

In the case of `CC[C@@]1(O)C(=O)OCc2c1cc1n(c2=O)Cc2cc3c(CN(C)C)c(O)ccc3nc2-1` [TOPOTECAN HYDROCHLORIDE], the IC50 [27] is reported as 0.511 µM.

`CC[C@@]1(O)C(=O)OCc2c1cc1n(c2=O)Cc2cc3cc(OCC(=O)OC(C)(C)C)ccc3nc2-1` gave an IC50 [35] of 0.16 µM, an IC50 [36] of 0.07 µM and an IC50 [37] of 0.46 µM. It also gave an IC50 [38] of 0.04 µM, an IC50 [39] of 0.06 µM and an IC50 [22] of 0.04 µM. The IC50 [40] was 0.06 µM and the IC50 [41] was 0.07 µM.

From ChEMBL document CHEMBL5226317, “Camptothecin's journey from discovery to WHO Essential Medicine: Fifty years of promise” (Eur J Med Chem, 2021)
